US20030220201A1, “Method and device for the generation of cyclopropene compounds” (priority 2002, published 2003)

How the values were obtained:
Type in all cases: physicochemical
[1] = Release of 1-MCP from 1-MCP/α-CD complex in water, fountain pump (Example 1); settings: 50 g 0.14% 1-MCP/α-CD complex in 250 ml water, pump approx. 200 liters/hour, 22° C.
Experimental: (§1) Fifty grams of 0.14% concentration of 1-MCP/α-CD complex in powdered form was placed into a 1000 ml beaker which also contained 250 ml of water. Into the beaker was also placed a Mini Jet® MN404 submersible pump (available from IPSD, Inc., San Diego, Calif.) which was set at a flow rate of approximately 200 liters/hour. This system was then placed into a 36 liter Plexiglas airtight chamber fitted with a septum for inserting a syringe for gas sampling. The temperature was set at 22° C.
(§2) After the chamber was sealed, the pump was turned on, creating a fountain-type flow in the beaker. The atmosphere of the chamber was sampled periodically to monitor the release of 1-MCP. The analysis was performed by gas chromatography using a flame ionization detector.

[2] = Release of 1-MCP from 1-MCP/α-CD complex in water, Comparative 1 (mix every 5 min.); settings: 50 g 0.14% complex in 250 ml water, swirling 30 seconds every 5 minutes, no pump
Experimental: as §1, §2
(§3) This procedure was repeated twice without using the pump for comparison purposes. The first comparison involved mixing the powdered suspension by swirling the contents of the beaker for 30 seconds, every 5 minutes. The second comparison involved using a 2 inch magnetic stir bar and a stir plate instead a pump to constantly mix the suspension.

[3] = Release of 1-MCP by gas sparge, small scale (Example 2); settings: 50 g 0.14% complex in 250 ml water, air 100 liters/hour
Experimental: Fifty grams of a 0.14% 1-MCP/α-CD complex in powdered form was placed into a 600 ml beaker which contained 250 ml of water. Also present in the beaker is a 10 inch long segment of Bubble Wall air diffusers (IPSD, Inc. San Diego, Calif.). This was connected to a Tetratec® air pump (Tetra Co., Blacksburg, Va.) via flexible connective tubing. The pump was set at a rate of 100 liters/hour. This system was then placed in a 36 liter Plexiglas airtight chamber fitted with a septum for inserting a syringe for gas sampling.
After the chamber was sealed, the pump was turned on to sparge gas through the aqueous suspension. The air in the chamber was sampled periodically to determine the rate of 1-MCP released. Analysis was performed by gas chromatography using a flame ionization detector.

[4] = Release of 1-MCP by gas sparge, large scale, 0.14% complex (Example 3); settings: 3400 g 0.14% complex in 11 liters water, air 400 liters/hour, 22° C.
Experimental: Thirty four hundred grams of a 0.14% 1-MCP/α-CD complex in powdered form was placed into a 20 liter plastic vessel containing 11 liters of water and a 56 inch segment of a Bubble Wall air diffuser (IPSD, Inc., San Diego, Calif.). The air diffuser is hooked to a Pro Gold® Profile 400 air pump via flexible connective tubing. The pump was set at the rate of 400 liters of air/hour. The temperature was set at 22° C.
The vessel was covered and fitted with an outlet tube through which all of the escaping air had to pass. After the pump was turned on, the air exiting the vessel was sampled periodically for 1-MCP content. Analysis was by gas chromatography using a flame detector.

[5] = Release of 1-MCP from 1-MCP/α-CD complex in water, Comparative 2 (stir bar); settings: 50 g 0.14% complex in 250 ml water, constant magnetic stir bar, no pump
Experimental: as §1, §2, §3

[6] = Release of 1-MCP by gas sparge, large scale, 3.3% complex, conical bottom vessel (Example 4); settings: 182 g 3.3% complex in 8 liters water, air 204 liters/hour, 22° C.
Experimental: One hundred eighty two grams of a 3.3% concentration of a 1-MCP/α-CD powder complex was placed in an 11 liter plastic vessel having a conical shaped bottom (at a 60 degree angle from horizontal). To the vessel was then added 8 liters of water. The vessel was fitted with a Kordon Mist Air® fine air diffuser (Novalek, Inc., Hayward, Calif.) hooked to a Sensidyne AP060SEEF60C1 air pump (available from Sensidyne Inc., Clearwater, Fla. which was set at a pumping rate of 204 liters of air/hour. The vessel was covered and then fitted with an outlet tube through which all of the vented air passed. The temperature was set at 22° C.
After the pump was turned on, the exiting air was sampled periodically for 1-MCP content. Analysis was by gas chromatography using a flame ionization detector.

SMILES: CC1=CC1 [1-MCP, 1-methylcyclopropene]
- Percent 1-MCP Released Fountain Pump ([1]; Time 0.08): 14%
- Percent 1-MCP Released Fountain Pump ([1]; Time 0.17): 43%
- Percent 1-MCP Released Fountain Pump ([1]; Time 0.42): 57%
- Percent 1-MCP Released Fountain Pump ([1]; Time 1.0): 79%
- Percent 1-MCP Released Fountain Pump ([1]; Time 1.5): 86%
- Percent 1-MCP Released Fountain Pump ([1]; Time 2.5 (hours)): 90%
- Percent 1-MCP Released Comparative 1 (mix every 5 min.) ([2]; Time 0.17): 4%
- Percent 1-MCP Released Comparative 1 (mix every 5 min.) ([2]; Time 0.42): 6%
- Percent 1-MCP Released Comparative 1 (mix every 5 min.) ([2]; Time 1.0): 9%
- Percent 1-MCP Released Comparative 1 (mix every 5 min.) ([2]; Time 3.0): 14%
- Percent 1-MCP Released Comparative 1 (mix every 5 min.) ([2]; Time 4.0): 16%
- Percent 1-MCP Released Comparative 1 (mix every 5 min.) ([2]; Time 5.5 (hours)): 17%
- Percent 1-MCP Released (gas sparge) ([3]; Time 0.17 Hrs): 42%
- Percent 1-MCP Released (gas sparge) ([3]; Time 0.42 Hrs): 58%
- Percent 1-MCP Released (gas sparge) ([3]; Time 0.75 Hrs): 75%
- Percent 1-MCP Released (gas sparge) ([3]; Time 1.0 Hrs): 83%
- Percent 1-MCP Released (gas sparge) ([3]; Time 2.0 Hrs): 92%
- Percent 1-MCP Released (gas sparge) ([4]; Time 0.17 hrs.): 12%
- Percent 1-MCP Released (gas sparge) ([4]; Time 0.33 hrs.): 29%
- Percent 1-MCP Released (gas sparge) ([4]; Time 0.5 hrs.): 48%
- Percent 1-MCP Released (gas sparge) ([4]; Time 0.75 hrs.): 70%
- Percent 1-MCP Released (gas sparge) ([4]; Time 1.0 hrs.): 84%
- Percent 1-MCP Released (gas sparge) ([4]; Time 1.25 hrs.): 92%
- Percent 1-MCP Released (gas sparge) ([4]; Time 1.5 hrs.): 96%
- Percent 1-MCP Released (gas sparge) ([4]; Time 2.0 hrs.): 100%
- Percent 1-MCP Released Comparative 2 (stir bar) ([5]; Time 0.17): 4%
- Percent 1-MCP Released Comparative 2 (stir bar) ([5]; Time 0.42): 6%
- Percent 1-MCP Released Comparative 2 (stir bar) ([5]; Time 1.0): 9%
- Percent 1-MCP Released Comparative 2 (stir bar) ([5]; Time 1.5): 14%
- Percent 1-MCP Released Comparative 2 (stir bar) ([5]; Time 2.5): 21%
- Percent 1-MCP Released Comparative 2 (stir bar) ([5]; Time 5.5 (hours)): 43%
- Percent 1-MCP Released (gas sparge) ([6]; Time 1.0 hrs.): 85%
- Percent 1-MCP Released (gas sparge) ([6]; Time 1.85 hrs.): 100%
